From ChEMBL document CHEMBL5537175, “Unraveling the Puzzle of Therapeutic Peptides: A Promising Frontier in Huntington's Disease Treatment” (J Med Chem, 2024)
Blank lines part the entries; values can stand above or below the substance they belong to.

Key:
RNA = assay: Binding affinity to CAG repeat RNA (unknown origin) assessed as dissociation constant; type: nucleic-acid assay
Caspase-6 = target: T1, Caspase-6 (Homo sapiens, UniProt P55212); assay: Inhibition of Caspase-6 activity (unknown origin) by FRET assay
T1 sequence (P55212 whole entry): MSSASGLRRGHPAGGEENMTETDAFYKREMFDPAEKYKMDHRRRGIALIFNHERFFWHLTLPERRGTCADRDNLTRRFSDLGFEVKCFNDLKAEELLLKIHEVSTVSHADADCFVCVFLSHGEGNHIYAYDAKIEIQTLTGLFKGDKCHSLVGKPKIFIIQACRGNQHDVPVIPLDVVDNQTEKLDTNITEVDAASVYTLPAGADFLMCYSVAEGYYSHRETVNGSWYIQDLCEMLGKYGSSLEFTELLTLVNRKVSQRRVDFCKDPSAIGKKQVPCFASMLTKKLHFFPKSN

Huntingtin [1] = target: T2, Huntingtin (Homo sapiens, UniProt P42858); assay: Inhibition of HTT (unknown origin) aggregation at 5 uM relative to control
COS-7 = assay: Cytotoxicity against african green monkey COS-7 cells assessed as reduction in cell growth; type: toxicity, cell-based; set-up: scale not given: the % may be the effect or the level left; details: chlorocebus aethiops
Huntingtin [2] = target: T2, Huntingtin; assay: Inhibition of HTT (unknown origin) by ELISA method
Huntingtin [3] = target: T2, Huntingtin; assay: Binding affinity to HTT (unknown origin) assessed as dissociation constant by surface plasmon resonance assay
[4] = Inhibition of YFP aggregation in african green monkey COS-7 cells at 70 nM relative to control; type: functional; details: Chlorocebus aethiops

T2 sequence (P42858 whole entry): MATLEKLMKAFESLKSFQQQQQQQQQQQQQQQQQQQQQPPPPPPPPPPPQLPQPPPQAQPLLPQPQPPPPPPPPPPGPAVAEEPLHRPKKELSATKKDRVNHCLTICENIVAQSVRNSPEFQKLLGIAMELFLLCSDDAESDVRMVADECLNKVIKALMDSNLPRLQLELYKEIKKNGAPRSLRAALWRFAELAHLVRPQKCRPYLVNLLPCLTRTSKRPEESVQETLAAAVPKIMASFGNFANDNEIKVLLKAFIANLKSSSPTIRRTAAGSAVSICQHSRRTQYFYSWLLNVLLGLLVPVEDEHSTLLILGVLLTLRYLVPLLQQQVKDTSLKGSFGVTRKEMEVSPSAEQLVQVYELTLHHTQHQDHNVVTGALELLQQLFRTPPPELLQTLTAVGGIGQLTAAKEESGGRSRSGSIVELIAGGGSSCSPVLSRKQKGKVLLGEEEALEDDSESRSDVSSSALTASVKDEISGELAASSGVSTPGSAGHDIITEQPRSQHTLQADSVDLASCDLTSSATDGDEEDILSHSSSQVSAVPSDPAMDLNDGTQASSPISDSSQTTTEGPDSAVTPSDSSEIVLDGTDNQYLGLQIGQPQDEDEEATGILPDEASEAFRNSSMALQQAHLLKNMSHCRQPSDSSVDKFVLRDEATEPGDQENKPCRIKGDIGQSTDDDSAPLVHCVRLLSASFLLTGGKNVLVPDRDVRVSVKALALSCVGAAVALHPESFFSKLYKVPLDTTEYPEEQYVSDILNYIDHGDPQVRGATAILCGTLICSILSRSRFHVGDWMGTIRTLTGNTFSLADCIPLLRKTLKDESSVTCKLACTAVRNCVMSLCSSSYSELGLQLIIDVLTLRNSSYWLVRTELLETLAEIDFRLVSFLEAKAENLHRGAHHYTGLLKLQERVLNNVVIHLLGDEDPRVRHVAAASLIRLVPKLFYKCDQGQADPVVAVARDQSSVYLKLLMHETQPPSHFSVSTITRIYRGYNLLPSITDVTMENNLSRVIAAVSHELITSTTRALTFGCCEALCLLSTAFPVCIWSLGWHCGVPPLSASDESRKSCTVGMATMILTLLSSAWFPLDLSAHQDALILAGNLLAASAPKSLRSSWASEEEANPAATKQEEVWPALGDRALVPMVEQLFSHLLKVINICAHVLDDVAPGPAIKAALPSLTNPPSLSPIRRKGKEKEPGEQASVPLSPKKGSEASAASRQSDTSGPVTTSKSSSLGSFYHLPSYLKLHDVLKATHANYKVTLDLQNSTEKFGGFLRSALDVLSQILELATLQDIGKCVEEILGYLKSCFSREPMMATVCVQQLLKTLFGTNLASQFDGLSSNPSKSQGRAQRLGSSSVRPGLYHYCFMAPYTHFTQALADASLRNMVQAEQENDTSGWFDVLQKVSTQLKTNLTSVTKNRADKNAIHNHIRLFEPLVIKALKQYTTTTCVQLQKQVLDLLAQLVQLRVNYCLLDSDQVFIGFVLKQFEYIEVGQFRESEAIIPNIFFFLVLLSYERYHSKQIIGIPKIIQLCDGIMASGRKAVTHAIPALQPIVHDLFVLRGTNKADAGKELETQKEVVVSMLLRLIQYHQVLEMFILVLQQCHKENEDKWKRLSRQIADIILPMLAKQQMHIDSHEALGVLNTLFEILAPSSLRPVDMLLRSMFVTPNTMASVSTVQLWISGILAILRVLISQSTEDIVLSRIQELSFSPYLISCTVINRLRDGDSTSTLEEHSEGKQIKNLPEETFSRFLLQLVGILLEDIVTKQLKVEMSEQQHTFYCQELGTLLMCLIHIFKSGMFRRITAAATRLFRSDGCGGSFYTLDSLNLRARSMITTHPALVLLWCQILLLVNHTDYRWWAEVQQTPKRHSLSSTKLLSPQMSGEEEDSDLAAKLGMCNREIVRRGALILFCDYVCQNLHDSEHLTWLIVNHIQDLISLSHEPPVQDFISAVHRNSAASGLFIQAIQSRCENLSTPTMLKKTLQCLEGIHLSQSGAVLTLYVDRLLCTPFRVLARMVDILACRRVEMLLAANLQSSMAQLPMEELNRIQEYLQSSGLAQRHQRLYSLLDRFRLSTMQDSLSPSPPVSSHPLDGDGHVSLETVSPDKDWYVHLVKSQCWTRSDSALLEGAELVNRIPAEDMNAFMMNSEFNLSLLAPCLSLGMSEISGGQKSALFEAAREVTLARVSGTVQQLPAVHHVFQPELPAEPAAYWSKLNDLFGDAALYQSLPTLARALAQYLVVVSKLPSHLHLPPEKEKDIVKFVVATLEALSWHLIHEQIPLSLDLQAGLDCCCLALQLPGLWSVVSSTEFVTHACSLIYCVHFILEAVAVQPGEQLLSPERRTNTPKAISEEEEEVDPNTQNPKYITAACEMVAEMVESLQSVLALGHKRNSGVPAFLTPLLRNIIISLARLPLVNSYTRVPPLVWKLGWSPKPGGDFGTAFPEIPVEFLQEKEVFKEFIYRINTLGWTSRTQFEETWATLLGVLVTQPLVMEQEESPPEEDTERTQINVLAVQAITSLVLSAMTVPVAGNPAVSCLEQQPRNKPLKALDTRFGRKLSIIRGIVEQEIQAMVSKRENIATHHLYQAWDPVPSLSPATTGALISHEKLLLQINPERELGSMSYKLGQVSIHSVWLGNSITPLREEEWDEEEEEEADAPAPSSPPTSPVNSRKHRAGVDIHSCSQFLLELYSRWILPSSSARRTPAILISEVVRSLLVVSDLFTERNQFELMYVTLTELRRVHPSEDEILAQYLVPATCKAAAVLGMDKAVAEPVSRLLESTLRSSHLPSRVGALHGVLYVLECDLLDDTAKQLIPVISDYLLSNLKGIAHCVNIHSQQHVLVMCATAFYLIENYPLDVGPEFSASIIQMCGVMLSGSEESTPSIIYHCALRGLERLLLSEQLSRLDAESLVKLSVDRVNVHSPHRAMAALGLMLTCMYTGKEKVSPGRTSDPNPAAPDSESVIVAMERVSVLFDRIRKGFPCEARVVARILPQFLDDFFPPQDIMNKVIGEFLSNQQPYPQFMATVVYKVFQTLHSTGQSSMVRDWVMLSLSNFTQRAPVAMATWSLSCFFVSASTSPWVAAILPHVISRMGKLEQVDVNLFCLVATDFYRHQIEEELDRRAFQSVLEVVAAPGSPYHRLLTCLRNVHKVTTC

Kd (RNA): 0.00837 µM
Substance: H-DGKSKGIAYIEFK-OH

inhibition (Huntingtin [1]): 20%
Substance: H-MATLEKLMKAFESLKSF-OH

IC50 (Huntingtin [2]): 5 µM
Kd (Huntingtin [3]): 5.7 µM
Substance: H-SNWKWWPGIFD-OH

Continued, substance first:

Substance: Ac-DGKSKGIAYIEFK-NH2
Kd (RNA): 0.00033 µM

Substance: H-AEIRLVSKDGKSKGIAYIEFK-OH
Kd (RNA): 0.66 µM

Substance: H-GRKKRRQRRRPPQSSEIVLDGTDN-OH
IC50 (Caspase-6): 0.0121 µM

Substance: H-RQIKIWFQNRRMKWKKSNWKWWPGIFD-OH
Activity (COS-7): 30.2%

Substance: H-WKWWPGIFDYGRKKRRQRRR-OH
inhibition at 0.07 µM [4]: 81.2%
